Assay results taken from US20110081315A1, “NOVEL MACROCYCLIC INHIBITORS OF HEPATITIS C VIRUS REPLICATION” (INTERMUNE, INC., priority 2009, published 2011).

Assays:
[1] = tested on: hepatitis C replicon; assay: hepatitis C replicon EC50 assay; assay type: cell-based; conditions: Hepatitis C virus; hepatitis C replicon; read-out: EC50
Excerpt: (§1) NS3-NS4 inhibition activity can be determined using known assay methods. For example, NS3/NS4 complexes may be formed and inhibitory concentrations of test compounds determined as described in U.S. Patent Application Publication Number 2007/0054842 paragraph numbers 1497-1509, which is incorporated herein by reference in its entirety. Similarly, hepatitis C replicon EC50 may be determined using known assay methods such as described in U.S. Patent Application Publication Number 2007/0054842 paragraph numbers 1510-1515, which is incorporated herein by reference in its entirety. Assays may be conducted at ambient temperature (23° C.) in assay buffer containing 50 mM Tris-HCl, pH 7.5, 15% glycerol, 0.6 mM Lauryldimethylamine Oxide (LDAO), 25 μM NS4A peptide, and 10 mM Dithiothreitol (DTT).

[2] = biological target: NS3/NS4 complexes (Hepatitis C virus genotype 1a, UniProt P27958); assay: NS3/NS4 inhibition assay (IC50); assay type: biochemical; conditions: NS3/NS4 activity; 23° C., 25 μM NS4A peptide
Excerpt: as §1

Sequence of NS3/NS4 complexes (P27958 1027-1657, one chain of several): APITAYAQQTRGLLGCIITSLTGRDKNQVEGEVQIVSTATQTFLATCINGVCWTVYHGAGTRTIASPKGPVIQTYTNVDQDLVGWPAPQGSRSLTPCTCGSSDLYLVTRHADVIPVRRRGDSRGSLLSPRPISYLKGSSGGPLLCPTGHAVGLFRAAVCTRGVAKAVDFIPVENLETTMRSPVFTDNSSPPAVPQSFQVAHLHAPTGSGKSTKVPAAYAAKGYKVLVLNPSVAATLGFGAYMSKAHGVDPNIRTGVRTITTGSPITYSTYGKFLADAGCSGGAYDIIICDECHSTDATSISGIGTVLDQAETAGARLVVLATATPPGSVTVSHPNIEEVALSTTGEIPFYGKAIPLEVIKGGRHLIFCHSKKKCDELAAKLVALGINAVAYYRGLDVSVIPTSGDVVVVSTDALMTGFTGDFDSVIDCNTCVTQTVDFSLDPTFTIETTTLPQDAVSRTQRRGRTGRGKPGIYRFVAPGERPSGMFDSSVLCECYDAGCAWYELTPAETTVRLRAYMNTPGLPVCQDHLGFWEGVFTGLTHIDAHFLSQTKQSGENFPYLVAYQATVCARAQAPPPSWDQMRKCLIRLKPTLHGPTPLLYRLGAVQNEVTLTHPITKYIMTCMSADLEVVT

| SMILES | EC50 [1] [nM] | IC50 [2] [nM] |
| --- | --- | --- |
| CCN1CCN(C(=O)c2cccc(N[C@H]3CCCCC/C=C\[C@@H]4C[C@@]4(C(=O)NS(=O)(=O)C4(C)CC4)NC(=O)[C@@H]4C[C@@H](Oc5cc(-c6nc(C(C)C)cs6)nc6c(C)c(OC)ccc56)CN4C3=O)c2)CC1 [Compound 112] | < 10 | < 10 |
| CCCN1CCN(C(=O)c2cccc(N[C@H]3CCCCC/C=C\[C@@H]4C[C@@]4(C(=O)NS(=O)(=O)C4(C)CC4)NC(=O)[C@@H]4C[C@@H](Oc5cc(-c6nc(C(C)C)cs6)nc6c(C)c(OC)ccc56)CN4C3=O)c2)CC1 [Compound 113] | < 10 | < 10 |
| COc1ccc2c(O[C@@H]3C[C@H]4C(=O)N[C@]5(C(=O)NS(=O)(=O)C6(C)CC6)C[C@H]5/C=C\CCCCC[C@H](Nc5cccc(C(=O)N6CCN(C(c7ccccc7)c7ccccc7)CC6)c5)C(=O)N4C3)cc(-c3nc(C(C)C)cs3)nc2c1C [Compound 114] | < 10 | < 10 |
| COc1ccc2c(O[C@@H]3C[C@H]4C(=O)N[C@]5(C(=O)NS(=O)(=O)C6(C)CC6)C[C@H]5/C=C\CCCCC[C@H](Nc5cccc(C(=O)N6CCN(C(=O)c7ccccc7)CC6)c5)C(=O)N4C3)cc(-c3nc(C(C)C)cs3)nc2c1C [Compound 115] | < 10 | < 10 |
| COc1ccc2c(O[C@@H]3C[C@H]4C(=O)N[C@]5(C(=O)NS(=O)(=O)C6(C)CC6)C[C@H]5/C=C\CCCCC[C@H](Nc5cccc(C(=O)N6CCN(C(C)c7ccccc7)CC6)c5)C(=O)N4C3)cc(-c3nc(C(C)C)cs3)nc2c1C (some centres unmarked) [Compound 116] | 10 to 100 | < 10 |
| COc1ccc2c(O[C@@H]3C[C@H]4C(=O)N[C@]5(C(=O)NS(=O)(=O)C6(C)CC6)C[C@H]5/C=C\CCCCC[C@H](Nc5cccc(C(=O)N6CCN(CCO)CC6)c5)C(=O)N4C3)cc(-c3nc(C(C)C)cs3)nc2c1C [Compound 117] | < 10 | < 10 |
| COc1ccc2c(O[C@@H]3C[C@H]4C(=O)N[C@]5(C(=O)NS(=O)(=O)C6(C)CC6)C[C@H]5/C=C\CCCCC[C@H](Nc5cccc(C(=O)N6CCN(c7ccccc7C)CC6)c5)C(=O)N4C3)cc(-c3nc(C(C)C)cs3)nc2c1C [Compound 118] | 10 to 100 | < 10 |
| COc1ccc2c(O[C@@H]3C[C@H]4C(=O)N[C@]5(C(=O)NS(=O)(=O)C6(C)CC6)C[C@H]5/C=C\CCCCC[C@H](Nc5cccc(C(=O)N6CCN(C(=O)C7CC7)CC6)c5)C(=O)N4C3)cc(-c3nc(C(C)C)cs3)nc2c1C [Compound 119] | < 10 | < 10 |
| COc1ccc2c(O[C@@H]3C[C@H]4C(=O)N[C@]5(C(=O)NS(=O)(=O)C6(C)CC6)C[C@H]5/C=C\CCCCC[C@H](Nc5cccc(C(=O)N6C[C@@H](C)O[C@@H](C)C6)c5)C(=O)N4C3)cc(-c3nc(C(C)C)cs3)nc2c1C [Compound 120] | < 10 | < 10 |
| COc1ccc2c(O[C@@H]3C[C@H]4C(=O)N[C@]5(C(=O)NS(=O)(=O)C6(C)CC6)C[C@H]5/C=C\CCCCC[C@H](Nc5cccc(C(=O)N6CCN(C(=O)c7ccco7)CC6)c5)C(=O)N4C3)cc(-c3nc(C(C)C)cs3)nc2c1C [Compound 121] | 10 to 100 | < 10 |
| COc1ccc2c(O[C@@H]3C[C@H]4C(=O)N[C@]5(C(=O)NS(=O)(=O)C6(C)CC6)C[C@H]5/C=C\CCCCC[C@H](Nc5cccc(C(=O)N6CCOCC6Cc6ccccc6)c5)C(=O)N4C3)cc(-c3nc(C(C)C)cs3)nc2c1C (some centres unmarked) [Compound 122] | 10 to 100 | < 10 |
| COc1ccc2c(O[C@@H]3C[C@H]4C(=O)N[C@]5(C(=O)NS(=O)(=O)C6(C)CC6)C[C@H]5/C=C\CCCCC[C@H](Nc5cccc(C(=O)N6CCN(c7ccc(C)cc7)CC6)c5)C(=O)N4C3)cc(-c3nc(C(C)C)cs3)nc2c1C [Compound 123] | 10 to 100 | < 10 |
| COc1ccc2c(O[C@@H]3C[C@H]4C(=O)N[C@]5(C(=O)NS(=O)(=O)C6(C)CC6)C[C@H]5/C=C\CCCCC[C@H](Nc5cccc(C(=O)N6CCN(c7cccc(C(F)(F)F)c7)CC6)c5)C(=O)N4C3)cc(-c3nc(C(C)C)cs3)nc2c1C [Compound 124] | 10 to 100 | < 10 |
| COc1ccc2c(O[C@@H]3C[C@H]4C(=O)N[C@]5(C(=O)NS(=O)(=O)C6(C)CC6)C[C@H]5/C=C\CCCCC[C@H](Nc5cccc(C(=O)N6CCN(c7ncccn7)CC6)c5)C(=O)N4C3)cc(-c3nc(C(C)C)cs3)nc2c1C [Compound 125] | < 10 | < 10 |
| COc1ccc2c(O[C@@H]3C[C@H]4C(=O)N[C@]5(C(=O)NS(=O)(=O)C6(C)CC6)C[C@H]5/C=C\CCCCC[C@H](Nc5cccc(C(=O)N6CCN(c7ccccn7)CC6)c5)C(=O)N4C3)cc(-c3nc(C(C)C)cs3)nc2c1C [Compound 126] | < 10 | < 10 |
| COc1ccc2c(O[C@@H]3C[C@H]4C(=O)N[C@]5(C(=O)NS(=O)(=O)C6(C)CC6)C[C@H]5/C=C\CCCCC[C@H](Nc5cccc(NC(=O)N6CCOCC6)c5)C(=O)N4C3)cc(-c3nc(C(C)C)cs3)nc2c1C [Compound 127] | < 10 | < 10 |
| COc1ccc2c(O[C@@H]3C[C@H]4C(=O)N[C@]5(C(=O)NS(=O)(=O)C6(C)CC6)C[C@H]5/C=C\CCCCC[C@H](Nc5cccc(-c6ncco6)c5)C(=O)N4C3)cc(-c3nc(C(C)C)cs3)nc2c1C [Compound 128] | < 10 | < 10 |

| SMILES | EC50 [1] [nM] | IC50 [2] [nM] |
| --- | --- | --- |
| COc1ccc2c(O[C@@H]3C[C@H]4C(=O)N[C@]5(C(=O)NS(=O)(=O)C6(C)CC6)C[C@H]5/C=C\CCCCC[C@H](Nc5cccc(C(C)(C)C)c5)C(=O)N4C3)cc(-c3nc(C(C)C)cs3)nc2c1C [Compound 129] | 10 to 100 | < 10 |
| CC(C)n1c(O[C@@H]2C[C@H]3C(=O)N[C@]4(C(=O)NS(=O)(=O)C5(C)CC5)C[C@H]4/C=C\CCCCC[C@H](Nc4cccc(C(C)(C)C)c4)C(=O)N3C2)nc2ccccc21 [Compound 200] | < 10 | < 10 |
| CC(C)c1cccc2c1nc(O[C@@H]1C[C@H]3C(=O)N[C@]4(C(=O)NS(=O)(=O)C5(C)CC5)C[C@H]4/C=C\CCCCC[C@H](Nc4ccccc4)C(=O)N3C1)n2C(C)C [Compound 201] | 10 to 100 | < 10 |
| CC(C)c1ccc2c(c1)nc(O[C@@H]1C[C@H]3C(=O)N[C@]4(C(=O)NS(=O)(=O)C5(C)CC5)C[C@H]4/C=C\CCCCC[C@H](Nc4ccccc4)C(=O)N3C1)n2C(C)C [Compound 202] | > 100 | < 10 |
| CC(C)n1c(O[C@@H]2C[C@H]3C(=O)N[C@]4(C(=O)NS(=O)(=O)C5(C)CC5)C[C@H]4/C=C\CCCCC[C@H](Nc4ccccc4)C(=O)N3C2)nc2c(-c3ccccc3)cccc21 [Compound 203] | 10 to 100 | < 10 |
| CC(C)n1c(O[C@@H]2C[C@H]3C(=O)N[C@]4(C(=O)NS(=O)(=O)C5(C)CC5)C[C@H]4/C=C\CCCCC[C@H](Nc4ccccc4)C(=O)N3C2)nc2c(C(F)(F)F)cccc21 [Compound 204] | 10 to 100 | < 10 |
| CN(C)S(=O)(=O)NC(=O)[C@@]12C[C@H]1/C=C\CCCCC[C@H](NC(=O)OC(C)(C)C)C(=O)N1C[C@H](Oc3nc4ccccc4n3C3CC3)C[C@H]1C(=O)N2 [Compound 205] | < 10 | < 10 |
| CN(C)S(=O)(=O)NC(=O)[C@@]12C[C@H]1/C=C\CCCCC[C@H](NC(=O)OC(C)(C)C)C(=O)N1C[C@H](Oc3nc4ccccc4n3C(C)(C)C)C[C@H]1C(=O)N2 [Compound 206] | < 10 | < 10 |
| CN(C)S(=O)(=O)NC(=O)[C@@]12C[C@H]1/C=C\CCCCC[C@H](NC(=O)OC(C)(C)C)C(=O)N1C[C@H](Oc3nc4ccccc4n3-c3ccccc3)C[C@H]1C(=O)N2 [Compound 207] | < 10 | < 10 |
| CC(C)n1c(O[C@@H]2C[C@H]3C(=O)N[C@]4(C(=O)O)C[C@H]4/C=C\CCCCC[C@H](NC(=O)OC(C)(C)C)C(=O)N3C2)nc2ccccc21 [Compound 208] | > 100 | < 10 |
| CC(C)n1c(O[C@@H]2C[C@H]3C(=O)N[C@]4(C(=O)NS(=O)(=O)N(C)C)C[C@H]4/C=C\CCCCC[C@H](NC(=O)OC(C)(C)C)C(=O)N3C2)nc2cnccc21 [Compound 209] | 10 to 100 | < 10 |
| CC(C)n1c(O[C@@H]2C[C@H]3C(=O)N[C@]4(C(=O)NS(=O)(=O)N(C)C)C[C@H]4/C=C\CCCCC[C@H](NC(=O)OC(C)(C)C)C(=O)N3C2)nc2c(-c3ccccc3)cccc21 [Compound 210] | < 10 | < 10 |
| CC(C)n1c(O[C@@H]2C[C@H]3C(=O)N[C@]4(C(=O)NS(=O)(=O)C5CC5)C[C@H]4/C=C\CCCCC[C@H](NC(=O)OC(C)(C)C)C(=O)N3C2)nc2c(-c3nccs3)cccc21 [Compound 211] | < 10 | < 10 |
| CC(C)n1c(O[C@@H]2C[C@H]3C(=O)N[C@]4(C(=O)NS(=O)(=O)C5CC5)C[C@H]4/C=C\CCCCC[C@H](NC(=O)OC(C)(C)C)C(=O)N3C2)nc2c(-c3ncco3)cccc21 [Compound 212] | < 10 | < 10 |
| CC(C)n1c(O[C@@H]2C[C@H]3C(=O)N[C@]4(C(=O)NS(=O)(=O)C5CC5)C[C@H]4/C=C\CCCCC[C@H](NC(=O)OC(C)(C)C)C(=O)N3C2)nc2c(-c3cccs3)cccc21 [Compound 213] | < 10 | < 10 |
| CC(C)n1c(O[C@@H]2C[C@H]3C(=O)N[C@]4(C(=O)NS(=O)(=O)C5CC5)C[C@H]4/C=C\CCCCC[C@H](NC(=O)OC(C)(C)C)C(=O)N3C2)nc2c(-c3nc4ccccc4s3)cccc21 [Compound 214] | < 10 | < 10 |
| Cc1csc(-c2cccc3c2nc(O[C@@H]2C[C@H]4C(=O)N[C@]5(C(=O)NS(=O)(=O)C6CC6)C[C@H]5/C=C\CCCCC[C@H](NC(=O)OC(C)(C)C)C(=O)N4C2)n3C(C)C)n1 [Compound 215] | < 10 | < 10 |
